Reference: ChEMBL document CHEMBL1135394, “Improvement in the selectivity and metabolic stability of the serotonin 5-HT(1A) ligand, S 15535: a series of cis- and trans-2-(arylcycloalkylamine) 1-indanols” (J Med Chem, 2002)
pKi: −log10 of the molar value.

What was measured:
[1] = biological target: T1, 5-hydroxytryptamine receptor 1A (Rattus norvegicus) (UniProt P19327)
T1 sequence (whole entry): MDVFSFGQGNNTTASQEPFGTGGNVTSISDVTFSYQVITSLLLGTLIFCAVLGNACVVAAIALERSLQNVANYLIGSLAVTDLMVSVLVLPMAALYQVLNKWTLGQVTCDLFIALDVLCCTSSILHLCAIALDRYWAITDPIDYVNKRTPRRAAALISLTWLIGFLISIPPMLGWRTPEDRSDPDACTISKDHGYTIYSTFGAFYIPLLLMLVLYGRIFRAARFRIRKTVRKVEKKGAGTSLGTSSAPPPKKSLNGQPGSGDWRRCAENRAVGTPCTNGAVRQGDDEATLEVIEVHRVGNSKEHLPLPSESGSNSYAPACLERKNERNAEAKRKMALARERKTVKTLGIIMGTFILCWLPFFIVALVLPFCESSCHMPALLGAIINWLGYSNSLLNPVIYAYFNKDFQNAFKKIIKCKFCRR

[2] = Selectivity ratio towards Alpha-1 adrenergic receptor to human 5-hydroxytryptamine 1A receptor
[3] = biological target: T2, 5-hydroxytryptamine receptor 1A (Homo sapiens) (UniProt P08908); experiment: Agonist efficacy of [35S]GTP-gamma-S, binding to 5-hydroxytryptamine 1A receptor compared with 5-HT; assay type: functional
T2 sequence (whole entry): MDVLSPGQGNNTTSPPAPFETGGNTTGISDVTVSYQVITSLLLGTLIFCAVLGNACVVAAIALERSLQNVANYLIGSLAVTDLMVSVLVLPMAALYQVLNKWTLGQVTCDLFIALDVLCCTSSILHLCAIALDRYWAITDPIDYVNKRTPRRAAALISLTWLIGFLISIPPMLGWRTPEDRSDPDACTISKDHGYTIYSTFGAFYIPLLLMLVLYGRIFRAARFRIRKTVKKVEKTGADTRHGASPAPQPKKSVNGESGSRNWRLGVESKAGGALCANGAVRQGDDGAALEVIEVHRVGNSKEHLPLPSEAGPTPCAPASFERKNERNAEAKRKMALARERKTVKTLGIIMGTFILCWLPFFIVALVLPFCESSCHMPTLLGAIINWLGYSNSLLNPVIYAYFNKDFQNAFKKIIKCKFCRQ

[4] = biological target: T1, 5-hydroxytryptamine receptor 1A (Rattus norvegicus); experiment: Antagonistic activity at postsynaptic 5-hydroxytryptamine 1A receptor was measured by its ability to inhibit hypothermia elicited by s.c. administration of 8-OH-DPAT in rat;ranges from (0.45-4.51); assay type: functional, organism-based
[5] = biological target: T3, Adrenergic receptor alpha-1 (Rattus norvegicus, UniProt P15823+P23944+P43140); experiment: Binding affinity at Alpha-1 adrenergic receptor by inhibition of [3H]-prazosin binding to rat cortex
T3 sequence (P15823 whole entry): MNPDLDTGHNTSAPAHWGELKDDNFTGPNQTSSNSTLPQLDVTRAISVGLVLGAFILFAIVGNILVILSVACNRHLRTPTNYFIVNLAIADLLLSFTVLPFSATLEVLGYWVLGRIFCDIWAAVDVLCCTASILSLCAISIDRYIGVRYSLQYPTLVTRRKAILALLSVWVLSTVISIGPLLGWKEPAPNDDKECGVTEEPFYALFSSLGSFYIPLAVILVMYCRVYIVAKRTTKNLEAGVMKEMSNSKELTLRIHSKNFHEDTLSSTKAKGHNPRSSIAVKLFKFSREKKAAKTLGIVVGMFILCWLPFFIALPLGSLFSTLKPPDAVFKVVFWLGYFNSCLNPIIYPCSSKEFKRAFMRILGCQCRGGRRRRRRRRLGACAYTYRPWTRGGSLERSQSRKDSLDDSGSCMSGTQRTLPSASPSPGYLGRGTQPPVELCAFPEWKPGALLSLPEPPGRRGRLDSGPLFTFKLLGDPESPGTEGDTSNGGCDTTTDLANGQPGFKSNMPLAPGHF
T3 sequence (P23944 whole entry): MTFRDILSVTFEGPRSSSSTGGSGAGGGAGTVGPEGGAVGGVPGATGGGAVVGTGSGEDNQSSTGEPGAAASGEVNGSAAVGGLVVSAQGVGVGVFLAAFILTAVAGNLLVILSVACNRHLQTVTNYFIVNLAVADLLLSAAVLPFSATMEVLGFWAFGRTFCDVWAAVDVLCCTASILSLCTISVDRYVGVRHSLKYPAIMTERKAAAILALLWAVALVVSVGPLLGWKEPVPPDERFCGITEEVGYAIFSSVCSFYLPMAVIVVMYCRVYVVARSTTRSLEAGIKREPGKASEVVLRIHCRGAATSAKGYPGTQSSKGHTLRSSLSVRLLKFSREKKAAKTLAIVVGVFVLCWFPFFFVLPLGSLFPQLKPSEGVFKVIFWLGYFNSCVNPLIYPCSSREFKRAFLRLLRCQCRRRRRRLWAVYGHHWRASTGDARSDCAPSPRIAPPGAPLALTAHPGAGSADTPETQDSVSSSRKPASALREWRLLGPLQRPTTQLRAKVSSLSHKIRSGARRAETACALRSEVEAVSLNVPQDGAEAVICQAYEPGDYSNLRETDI
T3 sequence (P43140 whole entry): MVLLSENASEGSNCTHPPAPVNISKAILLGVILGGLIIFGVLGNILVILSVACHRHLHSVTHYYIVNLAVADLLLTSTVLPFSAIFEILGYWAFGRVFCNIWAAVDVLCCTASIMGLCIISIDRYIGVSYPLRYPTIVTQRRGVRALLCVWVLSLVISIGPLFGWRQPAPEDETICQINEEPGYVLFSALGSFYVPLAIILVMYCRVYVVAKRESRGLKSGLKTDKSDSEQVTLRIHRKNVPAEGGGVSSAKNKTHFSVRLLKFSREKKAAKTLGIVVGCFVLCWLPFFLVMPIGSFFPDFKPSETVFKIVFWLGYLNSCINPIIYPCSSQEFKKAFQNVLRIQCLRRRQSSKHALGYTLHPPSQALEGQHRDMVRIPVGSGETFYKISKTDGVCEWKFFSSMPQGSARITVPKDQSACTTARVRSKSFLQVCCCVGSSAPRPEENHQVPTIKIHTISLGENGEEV

[6] = biological target: T1, 5-hydroxytryptamine receptor 1A (Rattus norvegicus); experiment: Antagonistic activity at postsynaptic 5-hydroxytryptamine 1A receptor was measured by its ability to inhibit hypothermia elicited by s.c. administration of 8-OH-DPAT in rat;ranges from (0.20-1.80); assay type: functional, organism-based
[7] = biological target: T4, 5-hydroxytryptamine receptor 1A (Homo sapiens, UniProt P08908); experiment: Binding affinity at human 5-hydroxytryptamine 1A receptor by inhibition of [3H]8-OH-DPAT binding in Chinese hamster ovary cell line; assay type: cell-based
T4 sequence (P08908 whole entry): T2 sequence (whole entry)

[8] = In vitro oral metabolic bioavailability after incubation with hepatic microsomes; assay type: ADME, Liver; details: read-out: MF
[9] = biological target: T1, 5-hydroxytryptamine receptor 1A (Rattus norvegicus); experiment: Antagonistic activity at postsynaptic 5-HT1A receptor was measured by its ability to inhibit hypothermia elicited by s.c. administration of 8-OH-DPAT in rat;ranges from (.26-3.52); assay type: functional, organism-based
[10] = biological target: T1, 5-hydroxytryptamine receptor 1A (Rattus norvegicus); experiment: Antagonistic activity at postsynaptic 5-hydroxytryptamine 1A receptor was measured by its ability to inhibit hypothermia elicited by s.c. administration of 8-OH-DPAT in rat;ranges from (0.50-5.30); assay type: functional, organism-based
[11] = biological target: T1, 5-hydroxytryptamine receptor 1A (Rattus norvegicus); experiment: Antagonistic activity at postsynaptic 5-hydroxytryptamine 1A receptor was measured by its ability to inhibit hypothermia elicited by s.c. administration of 8-OH-DPAT in rat;ranges from (2.20-30.5); assay type: functional, organism-based
[12] = biological target: T1, 5-hydroxytryptamine receptor 1A (Rattus norvegicus); experiment: Antagonistic activity at postsynaptic 5-hydroxytryptamine 1A receptor was measured by its ability to inhibit hypothermia elicited by s.c. administration of 8-OH-DPAT in rat;ranges from (0.40-4); assay type: functional, organism-based
[13] = biological target: T1, 5-hydroxytryptamine receptor 1A (Rattus norvegicus); experiment: Antagonistic activity at postsynaptic 5-hydroxytryptamine 1A receptor was measured by its ability to inhibit hypothermia elicited by s.c. administration of 8-OH-DPAT in rat;ranges from (0.20-1.60); assay type: functional, organism-based
[14] = biological target: T1, 5-hydroxytryptamine receptor 1A (Rattus norvegicus); experiment: Antagonistic activity at postsynaptic 5-hydroxytryptamine 1A receptor was measured by its ability to inhibit hypothermia elicited by s.c. administration of 8-OH-DPAT in rat;ranges is not computable; assay type: functional, organism-based

Ratio [2]	Log Ki [5]	pKi [7]	Fh [8] [%]	Compound	also measured
224				COc1ccc2c(c1)C[C@@H](N1CCN(c3cccc4c3OCCO4)CC1)[C@@H]2O (racemic)	ID50 [1]: 0.72 mg/kg; Efficacy [3]: 21%
562				O[C@@H]1c2ccc(F)cc2C[C@H]1N1CCN(c2cccc3c2OCCO3)CC1 (racemic)	ID50 [4]: 1.42 mg/kg
55	-7.22	8.96		COc1ccc2c(c1)[C@@H](O)[C@H](N1CCC(c3cccc4c3OCCO4)CC1)C2 (relative stereo)	ID50 [6]: 0.6 mg/kg
575	-6.03	8.79	21	O[C@@H]1c2ccccc2C[C@H]1N1CCN(c2cccc3c2OCCO3)CC1 (relative stereo)	ID50 [9]: 0.96 mg/kg; Efficacy [3]: 52%
389	-6.95	9.54	22	O=[N+]([O-])c1ccc2c(c1)[C@@H](O)[C@H](N1CCC(c3cccc4c3OCCO4)CC1)C2 (relative stereo)	ID50 [11]: 8.1 mg/kg
112	-7.1	9.15	7	O[C@@H]1c2ccccc2C[C@H]1N1CCC(c2cccc3c2OCCO3)CC1 (relative stereo)	ID50 [13]: 0.5 mg/kg
332	-6.15	8.67	51	O[C@@H]1c2cc(F)c(F)cc2C[C@H]1N1CCN(c2cccc3c2OCCO3)CC1 (relative stereo)	ID50 [14]: 2.5 mg/kg

Compound	Ratio [2]	Log Ki [5]	pKi [7]	Fh [8] [%]	also measured
O[C@@H]1c2ccc(F)cc2C[C@H]1N1CC=C(c2cccc3c2OCCO3)CC1 (relative stereo)	128	-6.96	9.07	8	ID50 [10]: 1.7 mg/kg
O[C@@H]1c2ccccc2C[C@H]1N1CC=C(c2cccc3c2OCCO3)CC1 (relative stereo)	120	-7	9.08	4	ID50 [12]: 1.3 mg/kg
